DC50 and Dmax data for five compounds are collected here from patent publication US20260317324A1, “BIFUNCTIONAL COMPOUNDS FOR DEGRADING BRAF VIA UBIQUITIN PROTEOSOME PATHWAY” (Nurix Therapeutics, Inc., priority 2023, published 2026).

Common to all, as to format: cell-based
For one experiment, the target named is T1, BRAF G469A (Homo sapiens, UniProt P15056, G469A).
T1 construct: Horizon Discovery (HCT-116 BRAF−/− cells); host or cells: HCT-116 BRAF−/− cells, clone 34, lentiviral transduction
Nature of the experiment: BRAF HiBiT degradation assay, C-terminal HiBiT-tagged BRAF G469A overexpressed in HCT-116 BRAF−/− cells (clone 34), Nano-Glo HiBiT Lytic assay. Put shortly:
(§1)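 HCT-116 BRAF−/− cells stably expressing the tagged mutant were seeded at 3,000 cells/well and grown 24 h at 37 °C before an 11-point half-log series from 1 μM to 0.01 nM, run in duplicate at 0.2% DMSO. Lytic HiBiT luminescence gave % protein remaining versus DMSO controls; DC50 was the fitted concentration at 50%.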
For orientation: With HiBiT, luminescence reflects the tagged protein that the partner subunit can reach.

The next experiment has as its target T2, BRAF G466V (Homo sapiens, UniProt P15056, G466V).
T2 construct: Horizon Discovery (HCT-116 BRAF−/− cells); host or cells: HCT-116 BRAF−/− cells, clone 8, lentiviral transduction
The experiment can be described thus: BRAF HiBiT degradation assay, C-terminal HiBiT-tagged BRAF G466V overexpressed in HCT-116 BRAF−/− cells (clone 8), Nano-Glo HiBiT Lytic assay. Put shortly: as §1

In the next experiment the target is T3, BRAF V600E (Homo sapiens, UniProt P15056, V600E).
T3 construct: endogenous C-terminal HiBiT fusion tag on BRAF V600E allele; endogenous in cells; host or cells: A375 clone 1F10 (CRISPR-Cas9 knock-in of the HiBiT tag; parental A375 from ATCC)
The experiment can be described thus: BRAF HiBiT degradation assay, C-terminal HiBiT-tagged BRAF V600E A375 cells (clone 1F10), Nano-Glo HiBiT Lytic assay. As to conditions: for Dmax: A-375. Put shortly: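 A375 cells with CRISPR knock-in C-terminal HiBiT on endogenous BRAF V600E (clone 1F10) were seeded and cultured 24 h at 37 °C, then dosed with an 11-point half-log series (1 μM to 0.01 nM, duplicate, 0.2% DMSO). Lytic HiBiT luminescence gave % protein remaining; DC50 was the fitted concentration at 50%.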

For the next experiment, the target named is T4, BRAF D594G (Homo sapiens, UniProt P15056, D594G).
T4 construct: Horizon Discovery (HCT-116 BRAF−/− cells); host or cells: HCT-116 BRAF−/− cells, clone 63, lentiviral transduction
The experiment can be described thus: BRAF HiBiT degradation assay, C-terminal HiBiT-tagged BRAF D594G overexpressed in HCT-116 BRAF−/− cells (clone 63), Nano-Glo HiBiT Lytic assay. Put shortly:
as §1

Where [1] appears, read: Class 2, BRAF G469A, DC50 at 50%: fitted conc. at Y=50.
[2] abbreviates: HCT-116, Class 2, BRAF G469A, percentage protein degraded at maximal compound effect relative to DMSO.
Where [3] appears, read: BRAF G466V, DC50 at 50%: fitted conc. at Y=50.
The mark [4] stands for this setting: HCT-116, BRAF G466V, percentage protein degraded at maximal compound effect relative to DMSO.
Setting [5] is: A375 (BRAF V600E), DC50 at 50%: fitted conc. at Y=50.
Setting [6] is: A375 (BRAF V600E), percentage protein degraded at maximal compound effect relative to DMSO.
The mark [7] stands for this setting: BRAF D594G, DC50 at 50%: fitted conc. at Y=50.
Where [8] appears, read: HCT-116, BRAF D594G, percentage protein degraded at maximal compound effect relative to DMSO.

T1 sequence (P15056 whole entry G469A): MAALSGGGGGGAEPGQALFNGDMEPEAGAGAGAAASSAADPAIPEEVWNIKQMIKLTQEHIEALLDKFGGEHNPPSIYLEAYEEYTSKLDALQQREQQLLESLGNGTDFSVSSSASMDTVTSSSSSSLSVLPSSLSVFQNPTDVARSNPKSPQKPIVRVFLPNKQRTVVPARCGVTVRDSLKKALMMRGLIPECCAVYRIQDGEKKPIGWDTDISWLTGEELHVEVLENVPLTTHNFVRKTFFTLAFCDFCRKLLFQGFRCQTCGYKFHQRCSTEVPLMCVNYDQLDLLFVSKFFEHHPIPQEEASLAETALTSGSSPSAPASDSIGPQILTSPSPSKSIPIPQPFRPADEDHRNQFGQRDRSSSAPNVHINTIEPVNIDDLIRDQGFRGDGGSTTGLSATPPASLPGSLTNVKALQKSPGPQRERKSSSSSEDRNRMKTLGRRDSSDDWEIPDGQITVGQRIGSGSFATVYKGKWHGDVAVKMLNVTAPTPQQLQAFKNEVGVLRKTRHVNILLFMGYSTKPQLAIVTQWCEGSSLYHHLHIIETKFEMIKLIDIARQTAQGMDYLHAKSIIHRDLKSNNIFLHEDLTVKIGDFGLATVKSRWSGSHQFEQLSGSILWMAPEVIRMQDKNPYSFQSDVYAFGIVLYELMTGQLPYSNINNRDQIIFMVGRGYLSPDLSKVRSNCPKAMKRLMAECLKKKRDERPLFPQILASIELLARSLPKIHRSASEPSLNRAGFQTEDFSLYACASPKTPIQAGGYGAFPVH
T4 sequence (P15056 whole entry D594G): as the sequence (P15056 whole entry G469A) above, with A469G, D594G counted along it
T2 sequence (P15056 whole entry G466V): as the sequence (P15056 whole entry G469A) above, with G466V, A469G counted along it
T3 sequence (P15056 whole entry V600E, the tested form may be a part): as the sequence (P15056 whole entry G469A) above, with A469G, V600E counted along it

One may read the DC50 as the concentration at which degradation of the target reaches its halfway point. Usually Dmax stands for the largest share of the target that was removed. A higher Dmax goes with deep degradation. As to `O=C1CCC(c2ccc(N3CCC(CN4CCN(c5ccc(-n6cc(-c7cc(Cl)cc(NS(=O)(=O)N8CCCC8)c7F)c(-c7ccncc7)n6)cc5F)CC4)CC3)nc2)C(=O)N1` (racemic) [Compound 363, Rac-N-{5-chloro-3-[1-(4-{4-[(1-{5-[(3R)-2,6-dioxopiperidin-3-yl]pyridin-2-yl}piperidin-4-yl)methyl]piperazin-1-yl}-3-fluorophenyl)-3-(pyridin-4-yl)-1H-pyrazol-4-yl]-2-fluorophenyl}pyrrolidine-1-sulfonamide], the DC50 at BRAF G469A (BRAF G469A (Class 2), HCT-116 BRAF−/− cells, DC50 at 50% degradation) is under 10 nM; on BRAF G466V (BRAF G466V (Class 3), HCT-116 BRAF−/− cells, DC50 at 50% degradation), under 10 nM; at BRAF V600E (A375 (BRAF V600E, Class 1), DC50 at 50% degradation) it was under 10 nM; at BRAF D594G (BRAF D594G (Class 3), HCT-116 BRAF−/− cells, DC50 at 50% degradation), under 10 nM. For the same compound, the Dmax at BRAF G469A (BRAF G469A (Class 2), HCT-116 BRAF−/− cells, observed Dmax relative to DMSO control) was over 70%; on BRAF G466V (BRAF G466V (Class 3), HCT-116 BRAF−/− cells, observed Dmax relative to DMSO control) it was over 70%; at BRAF V600E (A375 (BRAF V600E, Class 1), observed Dmax, % protein degraded relative to DMSO control), over 70%; on BRAF D594G (BRAF D594G (Class 3), HCT-116 BRAF−/− cells, observed Dmax relative to DMSO control) it was over 70%.

Consider `CCN(C)S(=O)(=O)Nc1cccc(-c2nc(C(C)(C)C)sc2-c2ccnc(Nc3ccc(N4CCN(C(=O)CN5CCc6cc(C7CCC(=O)NC7=O)ccc6C5)CC4)c(F)c3)n2)c1F` (racemic) [Compound 28, Rac-(3R)-3-[2-(2-{4-[4-({4-[2-tert-butyl-4-(3-{[ethyl(methyl)sulfamoyl]amino}-2-fluorophenyl)-1,3-thiazol-5-yl]pyrimidin-2-yl}amino)-2-fluorophenyl]piperazin-1-yl}-2-oxoethyl)-1,2,3,4-tetrahydroisoquinolin-6-yl]piperidine-2,6-dione], for which the half-maximal degradation concentration (DC50) on BRAF G469A (setting [1]) was 10 to 50 nM; on BRAF G466V (setting [3]), under 10 nM; on BRAF V600E (setting [5]), under 10 nM; at BRAF D594G (setting [7]), 10 to 50 nM. Besides, the Dmax at BRAF G469A (setting [2]) was 30 to 70%; at BRAF G466V (setting [4]) it was 30 to 70%; on BRAF V600E (setting [6]) it was over 70%; on BRAF D594G (setting [8]), 30 to 70%.

As to `CCCS(=O)(=O)Nc1cccc(-c2nc(C(C)(C)C)sc2-c2ccnc(Nc3ccc(C4CCN(C(=O)C5CN(c6ccc(C7CCC(=O)NC7=O)cn6)C5)CC4)cc3)n2)c1F` (racemic) [Compound 159, Rac-N-(3-{2-tert-butyl-5-[2-({4-[1-(1-{5-[(3R)-2,6-dioxopiperidin-3-yl]pyridin-2-yl}azetidine-3-carbonyl)piperidin-4-yl]phenyl}amino)pyrimidin-4-yl]-1,3-thiazol-4-yl}-2-fluorophenyl)propane-1-sulfonamide], the DC50 at BRAF G469A (setting [1]) was over 500 nM; on BRAF G466V (setting [3]), over 500 nM; on BRAF V600E (setting [5]), under 10 nM; at BRAF D594G (setting [7]) it was over 500 nM. The Dmax is under 30% at BRAF G469A (setting [2]), under 30% at BRAF G466V (setting [4]), over 70% at BRAF V600E (setting [6]) and 30 to 70% on BRAF D594G (setting [8]).

As to `CCCS(=O)(=O)Nc1cccc(-c2cn(-c3ccc(C4CCN(CC5CCN(c6ccc(C7CCC(=O)NC7=O)cn6)CC5)CC4)cc3)nc2-c2ccncc2)c1F` (racemic) [Compound 24, Rac-N-{3-[1-(4-{1-[(1-{5-[(3R)-2,6-dioxopiperidin-3-yl]pyridin-2-yl}piperidin-4-yl)methyl]piperidin-4-yl}phenyl)-3-(pyridin-4-yl)-1H-pyrazol-4-yl]-2-fluorophenyl}propane-1-sulfonamide], the DC50 was over 500 nM on BRAF G469A (setting [1]), 10 to 50 nM at BRAF G466V (setting [3]), 10 to 50 nM on BRAF V600E (setting [5]) and over 500 nM at BRAF D594G (setting [7]). The Dmax is under 30% on BRAF G469A (setting [2]), 30 to 70% at BRAF G466V (setting [4]), over 70% on BRAF V600E (setting [6]) and 30 to 70% at BRAF D594G (setting [8]).

Consider `CCCS(=O)(=O)Nc1cccc(-c2cn(-c3ccc(N4CCN(CC5CCN(c6ccc(C7CCC(=O)NC7=O)cc6)CC5)CC4)cc3)nc2-c2ccncc2)c1F` (racemic) [Compound 21, Rac-N-{3-[1-(4-{4-[(1-{4-[(3R)-2,6-dioxopiperidin-3-yl]phenyl}piperidin-4-yl)methyl]piperazin-1-yl}phenyl)-3-(pyridin-4-yl)-1H-pyrazol-4-yl]-2-fluorophenyl}propane-1-sulfonamide], for which the half-maximal degradation concentration (DC50) on BRAF G469A (setting [1]) is over 500 nM; on BRAF G466V (setting [3]), 10 to 50 nM; on BRAF V600E (setting [5]), 10 to 50 nM; at BRAF D594G (setting [7]), over 500 nM. The greatest degradation seen (Dmax) is 30 to 70% on BRAF G469A (setting [2]), 30 to 70% on BRAF G466V (setting [4]), over 70% on BRAF V600E (setting [6]) and 30 to 70% on BRAF D594G (setting [8]).
